Source: patent US10766890B2, “Hepatitis B core protein modulators” (Assembly Biosciences, Inc., priority 2015, dated 2020)

Columns and labels:
[1] = system: HBV; test: Viral load production in AD38 cells, quantitative PCR of the core sequence in supernatant; type: cell-based; settings: 10 μM compound, 6 days at 37° C., supernatant qPCR vs DMSO control; for activity at 10 µM: Hepatitis B virus, 144 h, read-out: AD38 Viral Load (%) (VL with cmpd/VL in DMSO control) at 10 μM
Experimental: (§1) Example 63: Assay Measuring Activity of Compounds on Viral Production in and on Viability of AD38 Cells
(§2) AD38 cells were then re-suspended with 10 mL of Treatment Medium and counted. Wells of a collagen coated 96-well NUNC microtiter plate were seeded at 50,000/well in 180 μL of Treatment Medium, and 20 μL of in treatment media with either 10% DMSO (Control) or a 10× solution of compound in 10% DMSO was added. Plates were incubated for 6 days at 37° C.
Viral load production was assayed by quantitative PCR of the core sequence. […] The PCR mixture was incubated at 45° C. for 5 minutes, then 95° C. for 10 min, followed by 40 cycles of 10 seconds at 95° C. and 20 seconds at 60° C. Viral load was quantitated against known standards by using ViiA™ 7 Software. Viral load in the supernatant from wells with treated cells were compared against viral load in supernatant from DMSO control wells (≥3 per plate).

[2] = system: AD38 cells; test: Viability of AD38 cells, Promega CellTiter-Glo; type: cell-based; settings: 10 μM compound, 6 days, CellTiter-Glo luminescence, controls being 100%
Experimental: as §1, §2
At the end of compound treatment period cell viability was assessed using a Promega CellTiter-Glo protocol. All supernatant was removed the previously treated 96-well microtiter plate, and 50 μL Tetracycline-free treatment medium (DMEM/F12 (1:1), 1×Pen/step (cat#: 30-002-CL, Mediatech, Inc), with 2% FBS, Tet-system approved (cat#: 631106, Clontech), and 1% DMSO was added back to each well. Another 50 μL of CellTiter-Glo reagent solution (Promega, G7573) was then added at room temperature and the contents mixed for 2 minutes on an orbital shaker to induce cell lysis. This was followed by incubation at room temperature for 10 minutes to stabilize the luminescent signal. The luminescence was recorded for 0.2 seconds per well on a Tecan multimode platereader (Infinite M1000 pro). The luminescent signal from each well was normalized against that of untreated (DMSO) control wells. All results in Table 3 were reported with percent viability (with controls being 100%).

| Molecule | AD38 Viral Load (%) (VL with cmpd/VL in DMSO control) at 10 μM [1] | AD38 Viability Normalized Result (cmpd/DMSO %) at 10 μM [2] [%] | activity at 10 µM [1] [%] |
| --- | --- | --- | --- |
| 11-oxo-N-(4-(4-((2,2,2-trifluoroacetyl)-λ^4-azanyl)butoxy) phenethyl)-10,11-dihydrodibenzo[b, f][1,4]thiazepine-8-carboxamide 5,5-dioxide [Compound 482] | 16.3 | 101 | – |
| O=C(NCCOc1ccc(F)cc1)c1ccc2c(c1)NC(=O)c1ccccc1S2(=O)=O [Compound 469] | – | 100 | 4.1 |
| O=C(NCC(c1ccccc1)N1CCCC1)c1ccc2c(c1)NC(=O)c1ccccc1S2(=O)=O (stereo not shown) [Compound 471] | – | 103 | 72.6 |
| O=C(NCCC(c1ccccc1)N1CCCC1)c1ccc2c(c1)NC(=O)c1ccccc1S2(=O)=O (stereo not shown) [Compound 472] | – | 105 | 32.6 |
| O=C(NCCc1ccc(-c2cnn[nH]2)cc1)c1ccc2c(c1)NC(=O)c1ccccc1S2(=O)=O [Compound 475, N-(4-(1H-1,2,3-triazol-5-yl)phenethyl)-11-oxo-10,11-dihydrodibenzo[b,f][1,4]thiazepine-8-carboxamide 5,5-dioxide] | – | 96 | 0.7 |
| O=C(NCCCCOc1ccc(CCNC(=O)c2ccc3c(c2)NC(=O)c2ccccc2S3(=O)=O)cc1)OCc1ccccc1 [Compound 481] | – | 91 | 0.5 |
| CN1c2ccc(C(=O)NCCc3ccc(S(=O)(=O)N(C)C)cc3)cc2NC(=O)c2ccccc21 [Compound 498] | – | 76 | 13.8 |
| CCN1c2ccc(C(=O)NCCc3ccc(S(=O)(=O)N(C)C)cc3)cc2NC(=O)c2ccccc21 [Compound 501] | – | 91 | 5.5 |
| O=C(NCCc1ccc(-c2ccccc2)cc1)c1ccc2c(c1)NC(=O)c1ccccc1N2 [Compound 508] | – | 103 | 59.1 |
| CN(C)S(=O)(=O)c1ccc(CCNC(=O)c2ccc3c(c2)NC(=O)c2ccccc2N3)cc1 [Compound 510] | – | 92 | 21.4 |
| CCC(CNC(=O)c1ccc2c(c1)NC(=O)c1ccccc1S2(=O)=O)c1ccccc1 (stereo not shown) [Compound 530] | – | 92 | 5 |
| O=C(NCCc1ccc(-c2ccc(F)cc2)cc1)c1ccc2c(c1)NC(=O)c1ccccc1S2(=O)=O [Compound 533] | – | 3 | 0.6 |
| O=C(NCc1ccc(-c2cncnc2)cc1)c1ccc2c(c1)NC(=O)c1ccccc1S2 [Compound 537] | – | 100 | 51.5 |
| O=C(NCCc1ccc(-c2ccc(F)cc2)cc1)c1ccc2c(c1)NC(=O)c1ccccc1S2 [Compound 538] | – | 62 | 8.1 |
| O=C(NCc1ccc(-c2ccccc2)cc1)c1ccc2c(c1)NC(=O)c1ccccc1S2(=O)=O [Compound 563] | – | 59 | 0.9 |
| O=C(NCc1ccc(-c2ccc(F)cc2)cc1)c1ccc2c(c1)NC(=O)c1ccccc1S2(=O)=O [Compound 564] | – | 29 | 0.9 |
| O=C(NCc1cccc(-c2ccccc2)c1)c1ccc2c(c1)NC(=O)c1ccccc1S2(=O)=O [Compound 565] | – | 105 | 1.5 |
| O=C(NCc1cccc(-c2ccc(F)cc2)c1)c1ccc2c(c1)NC(=O)c1ccccc1S2(=O)=O [Compound 566] | – | 95 | 0.6 |
| O=C(NCc1ccc(-n2nccn2)cc1)c1ccc2c(c1)NC(=O)c1ccccc1S2(=O)=O [Compound 567] | – | 104 | 3.3 |
| O=C(NCc1cccc(-n2nccn2)c1)c1ccc2c(c1)NC(=O)c1ccccc1S2(=O)=O [Compound 568] | – | 101 | 3 |
| O=C(NCc1ccc(-c2cn(Cc3ccccc3)nn2)cc1)c1ccc2c(c1)NC(=O)c1ccccc1S2(=O)=O [Compound 569-A] | – | 97 | 1.5 |

| Molecule | AD38 Viral Load (%) (VL with cmpd/VL in DMSO control) at 10 μM [1] | AD38 Viability Normalized Result (cmpd/DMSO %) at 10 μM [2] [%] | activity at 10 µM [1] [%] |
| --- | --- | --- | --- |
| O=C(NCc1ccc(-c2c[nH]nn2)cc1)c1ccc2c(c1)NC(=O)c1ccccc1S2(=O)=O [Compound 569] | – | 100 | 2.8 |
| O=C(NCc1cccc(-c2cnn[nH]2)c1)c1ccc2c(c1)NC(=O)c1ccccc1S2(=O)=O [Compound 570] | – | 112 | 8.7 |
| O=C(NCc1ccc(-c2ccc(O)cc2)cc1)c1ccc2c(c1)NC(=O)c1ccccc1S2(=O)=O [Compound 638] | – | 7 | 8.6 |
| O=C(NCc1ccc(-c2cccc(O)c2)cc1)c1ccc2c(c1)NC(=O)c1ccccc1S2(=O)=O [Compound 639] | – | 34 | 4.5 |
| C[C@H](NC(=O)c1ccc2c(c1)NC(=O)c1ccccc1S2(=O)=O)c1ccc(-c2ccc(O)cc2)cc1 [Compound 640] | – | 1 | 4.4 |
| C[C@@H](NC(=O)c1ccc2c(c1)NC(=O)c1ccccc1S2(=O)=O)c1ccc(-c2ccc(O)cc2)cc1 [Compound 643] | – | 104 | 30 |
| O=C(NCc1ccc(-c2ccc3[nH]cnc3c2)cc1)c1ccc2c(c1)NC(=O)c1ccccc1S2(=O)=O [Compound 644] | – | 89 | 31.2 |
| CN(C)c1ccc(-c2ccc(CNC(=O)c3ccc4c(c3)NC(=O)c3ccccc3S4(=O)=O)cc2)cc1 [Compound 646] | – | 92 | 6 |
| O=C(NCc1ccc(-c2ccc3[nH]ccc3c2)cc1)c1ccc2c(c1)NC(=O)c1ccccc1S2(=O)=O [Compound 647] | – | 102 | 0.4 |
| Cl.NCc1ccc(-c2ccc(CNC(=O)c3ccc4c(c3)NC(=O)c3ccccc3S4(=O)=O)cc2)cc1 [Compound 652, N-((4′-(aminomethyl)-[1,1′-biphenyl]-4-yl)methyl)-11-oxo-10,11-dihydrodibenzo[b,f][1,4]thiazepine-8-carboxamide 5,5-dioxide hydrochloride] | – | 86 | 36.4 |
| N#Cc1ccc(-c2ccc(CNC(=O)c3ccc4c(c3)NC(=O)c3ccccc3S4(=O)=O)cc2)cc1 [Compound 652-A, N-((4′-cyano-[1,1′-biphenyl]-4-yl)methyl)-11-oxo-10,11-dihydrodibenzo[b,f][1,4]thiazepine-8-carboxamide 5,5-dioxide] | – | 36 | 4.6 |
| CN(C)CCOc1ccc(-c2ccc(CNC(=O)c3ccc4c(c3)NC(=O)c3ccccc3S4(=O)=O)cc2)cc1 [Compound 657] | – | 104 | 19.4 |
| CN(Cc1ccc(-c2ccc(O)cc2)cc1)C(=O)c1ccc2c(c1)NC(=O)c1ccccc1S2(=O)=O [Compound 662] | – | 34 | 20.8 |
| N#Cc1cccc(-c2ccc(CNC(=O)c3ccc4c(c3)NC(=O)c3ccccc3S4(=O)=O)cc2)c1 [Compound 676-A] | – | 98 | 5.9 |
| O=C(NCc1ccc(-c2ccc3[nH]ncc3c2)cc1)c1ccc2c(c1)NC(=O)c1ccccc1S2(=O)=O [Compound 678] | – | 76 | 1.4 |
| CN(C)CCOc1cccc(-c2ccc(CNC(=O)c3ccc4c(c3)NC(=O)c3ccccc3O4)cc2)c1 [Compound 717] | – | 0 | 170 |
| O=C(NCc1ccc(-c2ccc(O)cc2)cc1)c1ccc2c(c1)NC(=O)c1ccccc1O2 [Compound 719] | – | 110 | 4.6 |
| O=C(NCc1ccc(-c2cccc(O)c2)cc1)c1ccc2c(c1)NC(=O)c1ccccc1O2 [Compound 720] | – | 102 | 48.5 |
| O=C(NCc1ccc(-c2ccc(O)cc2)c(Cl)c1)c1ccc2c(c1)NC(=O)c1ccccc1O2 [Compound 721] | – | 29 | 9.7 |
| O=C(NCc1ccc(-c2ccc(O)cc2Cl)cc1)c1ccc2c(c1)NC(=O)c1ccccc1O2 [Compound 722] | – | 29 | 8.8 |
